Converted amounts (≈) assume the structure as drawn. Where two headings read alike, the source gives them in different places.
What was measured:
[1] = test system: Talaromyces avellaneus; assay: Growth inhibition on agar plates; type: cell-based; settings: Hamigera avellanea, pH 7.0, read-out: minimal inhibitory concentration
Experimental: (§1) On the other hand, with agar plates containing the assay medium [3.5 g disodium hydrogen phosphate, 0.5 g monopotassium dihydrogen phosphate, 5 g yeast extract (Difco), 10 g glucose, 15 g agar, 1000 ml distilled water, pH 7.0], the growth inhibition against Talaromyces avellaneus was assayed. In this assay, the minimal inhibitory concentrations were 3 μg/ml for C-15003 P-3 and P-3', and 1.5 μg/ml for C-15003 P-4. Furthermore, the wild strain of Tetrahymena pyriformis W as an assay organism was cultivated on an assay medium [composed of 20 g Proteose-peptone (Difco), 1 g yeast extract, 2 g glucose, 1000 ml distilled water and 10 ml 1 M-phosphate buffer pH 7.0] at 28° C. for 44 to 48 hours and the growth inhibitory activity of the antibiotic compounds against this particular microorganism was determined by the serial dilution method. Growth inhibition occurred at 1 μg/ml for C-15003 P-3 and P-3', and at 0.5 μg/ml for C-15003 P-4.

[2] = test system: P388 leukemia; assay: Antitumour activity, P388 leukemia in mice; type: in vivo, mouse; settings: 0.00625 mg/kg/day, intraperitoneally for 9 consecutive days; 1×10^6 cells/animal, intraperitoneally transplanted
[3] = test system: Mycobacterium avium; assay: Antimicrobial activity, paper disc method; type: cell-based; settings: 0.02 ml of 300 μg/ml solution, trypticase-soy agar
Experimental: (§2) With trypticase-soy agar (BBL) as an assay medium, the inhibitory concentrations against the microorganisms named below were investigated by the paper disc method. Thus, filter-paper discs (Toyo Seisakusho, thin-type, 8 mm dia.) each impregnated with 0.02 ml of a 300 μg/ml solution of C-15003 P-3, P-3' or P-4 were placed on plates respectively inoculated with the microorganisms named below to investigate the minimal inhibitory concentrations.

[4] = test system: Bacillus cereus; assay: Antimicrobial activity, paper disc method; type: cell-based; settings: 0.02 ml of 300 μg/ml solution, trypticase-soy agar
Experimental: as §2

[5] = test system: Serratia marcescens; assay: Antimicrobial activity, paper disc method; type: cell-based; settings: 0.02 ml of 300 μg/ml solution, trypticase-soy agar
Experimental: as §2

[6] = test system: Proteus mirabilis; assay: Antimicrobial activity, paper disc method; type: cell-based; settings: 0.02 ml of 300 μg/ml solution, trypticase-soy agar
Experimental: as §2

[7] = test system: Escherichia coli; assay: Antimicrobial activity, paper disc method; type: cell-based; settings: 0.02 ml of 300 μg/ml solution, trypticase-soy agar
Experimental: as §2

[8] = test system: Bacillus subtilis; assay: Antimicrobial activity, paper disc method; type: cell-based; settings: 0.02 ml of 300 μg/ml solution, trypticase-soy agar
Experimental: as §2

[9] = test system: Klebsiella pneumoniae; assay: Antimicrobial activity, paper disc method; type: cell-based; settings: 0.02 ml of 300 μg/ml solution, trypticase-soy agar
Experimental: as §2

[10] = test system: Staphylococcus aureus; assay: Antimicrobial activity, paper disc method; type: cell-based; settings: 0.02 ml of 300 μg/ml solution, trypticase-soy agar
Experimental: as §2

[11] = test system: Pseudomonas aeruginosa; assay: Antimicrobial activity, paper disc method; type: cell-based; settings: 0.02 ml of 300 μg/ml solution, trypticase-soy agar
Experimental: as §2

[12] = test system: Proteus vulgaris; assay: Antimicrobial activity, paper disc method; type: cell-based; settings: 0.02 ml of 300 μg/ml solution, trypticase-soy agar
Experimental: as §2

[13] = Acute toxicity test in mice; settings: mouse, in vivo, ip, intraperitoneal injection
[14] = test system: Tetrahymena pyriformis W; assay: Growth inhibitory activity, serial dilution method; type: cell-based; settings: 28° C., 44 to 48 hours, pH 7.0, read-out: growth inhibition concentration
Experimental: The potency of the antibiotic was assayed with Tetrahymena pyriformis W as an assay organism.
as §1

[15] = in chloroform, ethyl acetate, acetone, ethanol, methanol, pyridine, tetrahydrofuran & dimethylsulfoxide

| SMILES | MIC [1] [µg/mL] | life span-extending ratio [2] [%] | Solubility (in benzene & ether) | Solubility [15] | Solubility (in petr. ether, hexane & water) | antimicrobial activity (minimal inhibitory concentration) [3] | antimicrobial activity (minimal inhibitory concentration) [4] | antimicrobial activity (minimal inhibitory concentration) [5] | antimicrobial activity (minimal inhibitory concentration) [6] | antimicrobial activity (minimal inhibitory concentration) [7] | antimicrobial activity (minimal inhibitory concentration) [8] | antimicrobial activity (minimal inhibitory concentration) [9] | antimicrobial activity (minimal inhibitory concentration) [10] | antimicrobial activity (minimal inhibitory concentration) [11] | antimicrobial activity (minimal inhibitory concentration) [12] | LD50 [13] [mg/kg] | MIC [14] [µg/mL] |
| --- | --- | --- | --- | --- | --- | --- | --- | --- | --- | --- | --- | --- | --- | --- | --- | --- | --- |
| COc1cc2cc(c1Cl)N(C)C(=O)CC(OC(=O)C(C)C)C1(C)OC1C(C)C1CC(O)(NC(=O)O1)C(OC)C=CC=C(C)C2 (stereo not shown) [C-15003 P-3] | 3 (≈ 4.72 µM) | 200 | Sparingly soluble | Soluble | Insoluble | no activity | no activity | no activity | no activity | no activity | no activity | no activity | no activity | no activity | no activity | > 0.313 | 1 (≈ 1.57 µM) |
| COc1cc2cc(c1Cl)N(C)C(=O)CC(OC(=O)CC(C)C)C1(C)OC1C(C)C1CC(O)(NC(=O)O1)C(OC)C=CC=C(C)C2 (stereo not shown) [C-15003 P-4] | 1.5 (≈ 2.31 µM) | 200 | Sparingly soluble | Soluble | Insoluble | no activity | no activity | no activity | no activity | no activity | no activity | no activity | no activity | no activity | no activity | > 0.313 | 0.5 (≈ 0.77 µM) |

— patent publication US4360462A (priority 1977, dated 1982)
